Twelve compounds from patent publication EP4667483A1, “HUMAN TRANSFERRIN RECEPTOR-BINDING PEPTIDE” (JCR Pharmaceuticals Co., Ltd., priority 2023, dated 2024) can be followed below.

Experiment [1] deals with T1, human transferrin receptor (hTfR) (Homo sapiens, UniProt P02786). As to the kind of experiment: SPR measurement under pH 7.4 conditions (Biacore T200, CM3 chip, hTfR captured by His Tag antibody). The format is binding. To be noted: pH 7.4, single-cycle kinetics; read-out: hTfR SPR pH7.4 KD. A general note: SPR reads the build-up and loss of mass on a sensor chip optically.

Experiment [2] deals with T1, human transferrin receptor (hTfR). As to the kind of experiment: SPR measurement under pH 6.0 conditions (Biacore T200, NTA chip, immobilized hTfR). The experiment is classed as binding. The note with it: pH 6.0, single-cycle kinetics; read-out: hTfR SPR pH6.0 KD.

Numbered stars: 1 amine (or outer) side, 2 acyl side, 3 side chain; on linkers, the order of the positions; unused ones are H or OH. Bridge positions count the residues as written; N and C are the ends. Square brackets hold non-standard residues; d marks the D form. Peptide text beside a SMILES is read from it. * marks the point of attachment. Trp(1-CH2COOH) = N[C@@H](Cc1cn(CC(=O)O)c2ccccc12)C(=O)O; CH2CON(CH2CH2)2NCH2COOH = O=C(O)CN1CCN(C(=O)C*)CC1; NMePhe(4-COOH) = CN[C@@H](Cc1ccc(C(=O)O)cc1)C(=O)O; X1 = O=C([C@H](Cc1cccc(C(=O)[*:3])c1)N[*:1])[*:2]; Nle(6-morpholino) = N[C@@H](CCCCN1CCOCC1)C(=O)O; Phe(3-COOH) = N[C@@H](Cc1cccc(C(=O)O)c1)C(=O)O; Trp(7-aza) = N[C@@H](Cc1c[nH]c2ncccc12)C(=O)O; NH(CH2CH2O)8Me = COCCOCCOCCOCCOCCOCCOCCOCCN*; NMePhe(3-Cl) = CN[C@@H](Cc1cccc(Cl)c1)C(=O)O; 3Pal(6-NH2) = Nc1ccc(C[C@H](N)C(=O)O)cn1; NMeY = CN[C@@H](Cc1ccc(O)cc1)C(=O)O; Nva(3-Et) = CCC(CC)[C@H](N)C(=O)O; 4Pal = N[C@@H](Cc1ccncc1)C(=O)O; PEG4 = NCCOCCOCCOCCOCCC(=O)O; Carboxymethyl = O=C(O)C*

T1 sequence (P02786 whole entry): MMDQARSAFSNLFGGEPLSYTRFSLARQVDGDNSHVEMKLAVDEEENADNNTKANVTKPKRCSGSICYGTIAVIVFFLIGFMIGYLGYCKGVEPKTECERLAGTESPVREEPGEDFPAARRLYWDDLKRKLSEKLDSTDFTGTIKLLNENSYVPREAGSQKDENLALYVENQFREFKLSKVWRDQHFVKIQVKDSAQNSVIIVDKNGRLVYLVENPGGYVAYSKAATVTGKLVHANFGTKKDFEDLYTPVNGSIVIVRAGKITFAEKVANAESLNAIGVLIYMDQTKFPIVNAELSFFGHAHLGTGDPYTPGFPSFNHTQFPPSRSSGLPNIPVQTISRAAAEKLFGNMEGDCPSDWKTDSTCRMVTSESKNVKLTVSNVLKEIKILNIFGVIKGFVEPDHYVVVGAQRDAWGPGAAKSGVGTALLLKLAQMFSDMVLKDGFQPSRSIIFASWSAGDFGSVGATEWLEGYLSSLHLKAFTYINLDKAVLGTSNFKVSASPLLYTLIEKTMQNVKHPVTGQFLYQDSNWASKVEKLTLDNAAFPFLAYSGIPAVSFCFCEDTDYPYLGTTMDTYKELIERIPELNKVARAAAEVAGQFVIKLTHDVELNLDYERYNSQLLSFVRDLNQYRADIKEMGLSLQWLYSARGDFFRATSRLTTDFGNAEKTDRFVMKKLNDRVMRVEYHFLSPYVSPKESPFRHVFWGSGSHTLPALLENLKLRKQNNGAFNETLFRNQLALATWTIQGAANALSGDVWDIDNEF

As usually defined, the Kd is a measure of binding affinity in units of concentration. On to `CC[C@H](C)[C@@H]1NC(=O)[C@H](Cc2ccc(OCC(=O)N3CCN(CC(=O)O)CC3)cc2)NC(=O)[C@H](Cc2ccc(O)cc2)NC(=O)[C@H](CC(N)=O)NC(=O)[C@H](Cc2cn(CC(=O)O)c3ccccc23)NC(=O)[C@H](C(C)C)NC(=O)[C@H](Cc2cccc(Cl)c2)N(C)C(=O)[C@H](C(C)C)NC(=O)[C@H](C)NC(=O)CSC[C@@H](C(=O)NCCOCCOCCOCCOCCC(N)=O)NC(=O)[C@H](Cc2ccc(O)cc2)N(C)C(=O)[C@H](Cc2ccncc2)NC(=O)[C@H](CCCNC(=N)N)NC(=O)[C@H](CCCCNC(=O)N2CCN(CC(=O)O)CC2)NC(=O)[C@H]([C@@H](C)CC)NC1=O` [compound 34], for which the values for the Kd in experiment [1] and in experiment [2] were 5.22 nM and 14.9 nM, respectively.
As to `CC[C@H](C)[C@@H]1NC(=O)[C@H](Cc2ccc(OCC(=O)N3CCN(CC(=O)O)CC3)cc2)NC(=O)[C@H](Cc2ccc(O)cc2)NC(=O)[C@H](CC(N)=O)NC(=O)[C@H](Cc2cn(CC(=O)O)c3ccccc23)NC(=O)[C@H](C(C)C)NC(=O)[C@H](Cc2cccc(Cl)c2)N(C)C(=O)[C@H](C(C)C)NC(=O)[C@H](C)NC(=O)CSC[C@@H](C(=O)NCCOCCOCCOCCOCCC(N)=O)NC(=O)[C@H](Cc2ccc(O)cc2)N(C)C(=O)[C@H](Cc2cccc(C(=O)O)c2)NC(=O)[C@H](CCCCN2CCOCC2)NC(=O)[C@H](CCC(N)=O)NC(=O)[C@H]([C@@H](C)CC)NC1=O` [compound 35] ({CH2CO}-AV[NMePhe(3-Cl)]V[Trp(1-CH2COOH)]NYY(CH2CON(CH2CH2)2NCH2COOH)IIQ[Nle(6-morpholino)][Phe(3-COOH)][NMeY]C[PEG4]-NH2; thioether N-15), the dissociation constant Kd in experiment [1] stood at 1.74 nM; in experiment [2], 37 nM.
On to `CC[C@H](C)[C@@H]1NC(=O)[C@H](Cc2ccc(OCC(=O)N3CCN(CC(=O)O)CC3)cc2)NC(=O)[C@H](Cc2ccc(O)cc2)NC(=O)[C@H](CC(N)=O)NC(=O)[C@H](Cc2cn(CC(=O)O)c3ccccc23)NC(=O)[C@H](C(C)C)NC(=O)[C@H](Cc2cccc(Cl)c2)N(C)C(=O)[C@H](C(C)C)NC(=O)[C@H](C)NC(=O)CSC[C@@H](C(=O)NCCOCCOCCOCCOCCC(N)=O)NC(=O)[C@H](Cc2ccc(O)cc2)N(C)C(=O)[C@H](Cc2cccc(C(=O)O)c2)NC(=O)[C@H](CCCNC(=N)N)NC(=O)[C@H](CCC(N)=O)NC(=O)[C@H]([C@@H](C)CC)NC1=O` [compound 36], for which the Kd in experiment [1] worked out at 2.47 nM; in experiment [2] it was 44 nM.
The matching figures for `CC[C@H](C)[C@@H]1NC(=O)[C@H](Cc2ccc(OCC(=O)N3CCN(CC(=O)O)CC3)cc2)NC(=O)[C@H](Cc2ccc(O)cc2)NC(=O)[C@H](CC(N)=O)NC(=O)[C@H](Cc2cn(CC(=O)O)c3ccccc23)NC(=O)[C@H](C(C)C)NC(=O)[C@H](Cc2cccc(Cl)c2)N(C)C(=O)[C@H](C(C)C)NC(=O)[C@H](C)NC(=O)CSC[C@@H](C(=O)NCCOCCOCCOCCOCCC(N)=O)NC(=O)[C@H](Cc2ccc(O)cc2)N(C)C(=O)[C@H](Cc2ccncc2)NC(=O)[C@H](CCCCN2CCOCC2)NC(=O)[C@H](CCC(=O)NC[C@H](O)[C@@H](O)[C@H](O)[C@H](O)CO)NC(=O)[C@H]([C@@H](C)CC)NC1=O` [compound 40]: 43.8 nM and 42.6 nM.
The matching figures for `CC[C@H](C)[C@@H]1NC(=O)[C@H](Cc2ccc(OCCNC(=O)N3CCN(CC(=O)O)CC3)cc2)NC(=O)[C@H](Cc2ccc(O)cc2)NC(=O)[C@H](CC(N)=O)NC(=O)[C@H](Cc2cn(CC(=O)O)c3ccccc23)NC(=O)[C@H](C(C)C)NC(=O)[C@H](Cc2cccc(Cl)c2)N(C)C(=O)[C@H](C(C)C)NC(=O)[C@H](C)NC(=O)CSC[C@@H](C(=O)NCCOCCOCCOCCOCCC(N)=O)NC(=O)[C@H](Cc2ccc(O)cc2)N(C)C(=O)[C@H](Cc2ccncc2)NC(=O)[C@H](CCCCN2CCOCC2)NC(=O)[C@H](CCC(=O)NCCOCCOCCOCCOCCOCCOCCOCCOC)NC(=O)[C@H]([C@@H](C)CC)NC1=O` [compound 41]: 14.5 nM and 91.4 nM.
As for `CC[C@H](C)[C@@H]1NC(=O)[C@H](Cc2ccc(OCC(=O)N3CCN(CC(=O)O)CC3)cc2)NC(=O)[C@H](Cc2ccc(O)cc2)NC(=O)[C@H](CC(N)=O)NC(=O)[C@H](Cc2c[nH]c3ncccc23)NC(=O)[C@H](C(C)C)NC(=O)[C@H](Cc2cccc(Cl)c2)N(C)C(=O)[C@H](C(C)C)NC(=O)[C@H](C)NC(=O)CSC[C@@H](C(=O)NCCOCCOCCOCCOCCC(N)=O)NC(=O)[C@H](Cc2ccc(O)cc2)N(C)C(=O)[C@H](Cc2cccc(C(=O)O)c2)NC(=O)[C@H](CCCNC(=N)N)NC(=O)[C@H](CCC(=O)NCCOCCOCCOCCOCCOCCOCCOCCOC)NC(=O)[C@H]([C@@H](C)CC)NC1=O` [compound 42], the results for the Kd in experiment [1] and in experiment [2] were 5.11 nM and 34.4 nM, respectively.
With `CCC(CC)[C@@H]1NC(=O)[C@H](Cc2ccc(OCC(=O)O)cc2)NC(=O)[C@H](Cc2ccc(N)nc2)NC(=O)[C@H](CC(N)=O)NC(=O)[C@H](Cc2c[nH]c3ncccc23)NC(=O)[C@H](C(C)C)NC(=O)[C@H](Cc2cccc(Cl)c2)N(C)C(=O)[C@H](C(C)C)NC(=O)[C@H](C)NC(=O)CSC[C@@H](C(=O)NCCOCCOCCOCCOCCC(N)=O)NC(=O)[C@H](Cc2ccc(O)cc2)N(C)C(=O)[C@H](Cc2cccc(C(=O)O)c2)NC(=O)[C@H](CCCNC(=N)N)NC(=O)[C@H](CCC(=O)NCCOCCOCCOCCOCCOCCOCCOCCOC)NC(=O)[C@H]([C@@H](C)CC)NC1=O` [compound 43] ({CH2CO}-AV[NMePhe(3-Cl)]V[Trp(7-aza)]N[3Pal(6-NH2)]Y(Carboxymethyl)[Nva(3-Et)]IE(NH(CH2CH2O)8Me)R[Phe(3-COOH)][NMeY]C[PEG4]-NH2; thioether N-15), the dissociation constant (Kd) in experiment [1] turned out to be 107 nM; in experiment [2] it was 601 nM.
As to `CCC(CC)[C@@H]1NC(=O)[C@H](Cc2ccc(OCC(=O)O)cc2)NC(=O)[C@H](Cc2ccc(N)nc2)NC(=O)[C@H](CC(N)=O)NC(=O)[C@H](Cc2c[nH]c3ncccc23)NC(=O)[C@H](C(C)C)NC(=O)[C@H](Cc2cccc(Cl)c2)N(C)C(=O)[C@H](C(C)C)NC(=O)[C@H](C)NC(=O)CSC[C@@H](C(=O)NCCOCCOCCOCCOCCC(N)=O)NC(=O)[C@H](Cc2ccc(O)cc2)N(C)C(=O)[C@H](Cc2cccc(C(=O)NCCOCCOCCOCCOCCC(=O)O)c2)NC(=O)[C@H](CCCNC(=N)N)NC(=O)[C@H](CCC(N)=O)NC(=O)[C@H]([C@@H](C)CC)NC1=O` [compound 44] ({CH2CO}-AV[NMePhe(3-Cl)]V[Trp(7-aza)]N[3Pal(6-NH2)]Y(Carboxymethyl)[Nva(3-Et)]IQR[X1](PEG4)[NMeY]C[PEG4]-NH2; thioether N-15), the Kd in experiment [1] worked out at 36.6 nM; in experiment [2], 339 nM.
Turning to `CCC(CC)[C@@H]1NC(=O)[C@H](Cc2ccc(OCC(=O)O)cc2)NC(=O)[C@H](Cc2ccc(N)nc2)NC(=O)[C@H](CC(N)=O)NC(=O)[C@H](Cc2c[nH]c3ncccc23)NC(=O)[C@H](C(C)C)NC(=O)[C@H](Cc2cccc(Cl)c2)N(C)C(=O)[C@H](C(C)C)NC(=O)[C@H](C)NC(=O)CSC[C@@H](C(=O)NCCOCCOCCOCCOCCC(N)=O)NC(=O)[C@H](Cc2ccc(C(=O)O)cc2)N(C)C(=O)[C@H](Cc2cccc(C(=O)O)c2)NC(=O)[C@H](CCCNC(=N)N)NC(=O)[C@H](CCC(N)=O)NC(=O)[C@H]([C@@H](C)CC)NC1=O` [compound 45] ({CH2CO}-AV[NMePhe(3-Cl)]V[Trp(7-aza)]N[3Pal(6-NH2)]Y(Carboxymethyl)[Nva(3-Et)]IQR[Phe(3-COOH)][NMePhe(4-COOH)]C[PEG4]-NH2; thioether N-15), the results for the Kd in experiment [1] and in experiment [2] were 75.5 nM and 869 nM, respectively.
For `CCC(CC)[C@@H]1NC(=O)[C@H](Cc2ccc(OCC(=O)O)cc2)NC(=O)[C@H](Cc2ccc(N)nc2)NC(=O)[C@H](CC(N)=O)NC(=O)[C@H](Cc2cn(CC(=O)O)c3ccccc23)NC(=O)[C@H](C(C)C)NC(=O)[C@H](Cc2cccc(Cl)c2)N(C)C(=O)[C@H](C(C)C)NC(=O)[C@H](C)NC(=O)CSC[C@@H](C(=O)NCCOCCOCCOCCOCCC(N)=O)NC(=O)[C@H](Cc2ccc(O)cc2)N(C)C(=O)[C@H](Cc2ccncc2)NC(=O)[C@H](CCCCN2CCOCC2)NC(=O)[C@H](CCC(N)=O)NC(=O)[C@H]([C@@H](C)CC)NC1=O` [compound 47] ({CH2CO}-AV[NMePhe(3-Cl)]V[Trp(1-CH2COOH)]N[3Pal(6-NH2)]Y(Carboxymethyl)[Nva(3-Et)]IQ[Nle(6-morpholino)][4Pal][NMeY]C[PEG4]-NH2; thioether N-15) the same measures were 116 nM and 249 nM.
Take `CCC(CC)[C@@H]1NC(=O)[C@H](Cc2ccc(OCC(=O)O)cc2)NC(=O)[C@H](Cc2ccc(N)nc2)NC(=O)[C@H](CC(N)=O)NC(=O)[C@H](Cc2cn(CC(=O)O)c3ccccc23)NC(=O)[C@H](C(C)C)NC(=O)[C@H](Cc2cccc(Cl)c2)N(C)C(=O)[C@H](C(C)C)NC(=O)[C@H](C)NC(=O)CSC[C@@H](C(=O)NCCOCCOCCOCCOCCC(N)=O)NC(=O)[C@H](Cc2ccc(O)cc2)N(C)C(=O)[C@H](Cc2ccncc2)NC(=O)[C@H](CCCNC(=N)N)NC(=O)[C@H](CCC(=O)NCCOCCOCCOCCOCCOCCOCCOCCOC)NC(=O)[C@H]([C@@H](C)CC)NC1=O` [compound 48] ({CH2CO}-AV[NMePhe(3-Cl)]V[Trp(1-CH2COOH)]N[3Pal(6-NH2)]Y(Carboxymethyl)[Nva(3-Et)]IE(NH(CH2CH2O)8Me)R[4Pal][NMeY]C[PEG4]-NH2; thioether N-15): the Kd in experiment [1] was 111 nM; in experiment [2], 536 nM.
For `CCC(CC)[C@@H]1NC(=O)[C@H](Cc2ccc(OCC(=O)O)cc2)NC(=O)[C@H](Cc2ccc(N)nc2)NC(=O)[C@H](CC(N)=O)NC(=O)[C@H](Cc2cn(CC(=O)O)c3ccccc23)NC(=O)[C@H](C(C)C)NC(=O)[C@H](Cc2cccc(Cl)c2)N(C)C(=O)[C@H](C(C)C)NC(=O)[C@H](C)NC(=O)CSC[C@@H](C(=O)NCCOCCOCCOCCOCCC(N)=O)NC(=O)[C@H](Cc2ccc(C(=O)O)cc2)N(C)C(=O)[C@H](Cc2ccncc2)NC(=O)[C@H](CCCCN2CCOCC2)NC(=O)[C@H](CCC(N)=O)NC(=O)[C@H]([C@@H](C)CC)NC1=O` [compound 49] ({CH2CO}-AV[NMePhe(3-Cl)]V[Trp(1-CH2COOH)]N[3Pal(6-NH2)]Y(Carboxymethyl)[Nva(3-Et)]IQ[Nle(6-morpholino)][4Pal][NMePhe(4-COOH)]C[PEG4]-NH2; thioether N-15) the same measures were 15800 nM and 576 nM.
